From patent publication US5247084A, “Derivatives of p-guanidinobenzoic acid” (priority 1985, dated 1993)
Like-named read-outs stand apart in the source and are kept apart here.

Key:
[1] = molecular target: T1, elastase from human neutrophil (Homo sapiens, UniProt P08246); test: Inhibitory effect on elastase (spectrophotometric method, substrate Suc-Ala-Pro-Ala-pNA); assay type: biochemical; conditions: for IC50: pH 8.0, 37° C., 30 minutes
T1 construct: using elastase from human neutrophil; from tissue; host or cells: human neutrophil
T1 sequence (P08246 30-247 limits assumed): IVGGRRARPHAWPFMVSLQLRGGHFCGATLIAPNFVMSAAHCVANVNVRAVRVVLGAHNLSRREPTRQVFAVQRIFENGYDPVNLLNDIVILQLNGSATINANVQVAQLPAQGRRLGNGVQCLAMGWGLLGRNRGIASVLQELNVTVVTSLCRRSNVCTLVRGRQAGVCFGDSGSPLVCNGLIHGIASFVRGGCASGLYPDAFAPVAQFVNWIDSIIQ
Protocol: The test was carried out by the slight modification of the method of Bieth et al [see Biochem. Med., 75, 350 (1974)] using elastase from human neutrophil.
The reaction mixture consisted of 1 mM Suc-Ala-Pro-Ala-pNA (dissolving in N-methylpyrrolidone to the concentration of 100 mM, and then adding 1/100 amount of the solution to the reaction mixture.), 0.1 M buffer solution of tris-hydrochloric acid (pH 8.0), 0.2 M sodium chloride aqueous solution, the sample solution of various concentrations and enzyme solution in a final volume of 1.0 ml was incubated at 37° C. for 30 minutes.
The reaction was stopped by the addition of 100 μl of 50% acetic acid into the reaction mixture, and then p-nitro anilide released was measured on absorbance of 405 nm.
Inhibition percentage of the test compounds was caliculated by the following equation: [formula]

[2] = acute toxicity test in mice by intravenous administration; conditions: mouse, in vivo
[3] = Y represents a sulfur atom, read-out: Elastase Inhibitory Effect, IC50
[4] = at 50 μg/ml, Y represents a sulfur atom, read-out: Elastase Inhibitory Effect, Inhibition %

With `CS(=O)(=O)O.N=C(N)Nc1ccc(C(=O)Oc2cc(O)cc(Cl)c2)cc1` [Example 112, p-guanidinobenzoic acid 3-chloro-5-hydroxyphenyl ester methanesulfonate] the IC50 ([1]; Y represents an oxygen atom, read-out: Inhibitory Effect on Elastase, IC50) was 8300 nM and the LD50 [2] was 50 to 150 mg/kg.
With `N=C(N)Nc1ccc(C(=O)Sc2ccccc2)cc1` [Example 124] the IC50 [1, 3] was 2100 nM, the inhibition at 50 µg/mL [1, 4] was 94% and the LD50 [2] was 50 to 150 mg/kg.
For `N=C(N)Nc1ccc(C(=O)Sc2cc(Cl)ccc2Cl)cc1` [Example 135, p-guanidinobenzoic acid 2,5-dichlorothiophenyl ester methanesulfonate], the IC50 [1, 3] was 100 nM, the inhibition at 50 µg/mL [1, 4] was 92.1% and the LD50 [2] was 50 to 150 mg/kg.
`N=C(N)Nc1ccc(C(=O)Oc2ccccc2)cc1` [hydrogen, reference compound] gave an inhibition at 50 µg/mL ([1]; at 50 μg/ml (footnote 2), Y represents an oxygen atom, read-out: Inhibitory Effect on Elastase, Inhibition %) of 54.6% and an LD50 [2] of 50 to 150 mg/kg.
